Tests used:
[1] = biological target: T1, ER-α (Homo sapiens, UniProt P03372); test: Breast Cancer Cell ER-α in Cell Western Assay (SP1); type: cell-based; conditions: MCF7, read-out: ER In-Cell Western Assay (SP1); Max Response
T1 construct: endogenous in cells; host or cells: MCF-7
Method: Breast Cancer Cell ER-α in Cell Western Assay (SP1)
MCF-7 cells were adjusted to a concentration of 200,000 cells per mL in RPMI containing 10% charcoal-stripped FBS and 20 mM HEPES. 16 microliters of the cell suspension (3200 cells) was added to each well of a poly-D-lysine 384 well plate, and the cells were incubated overnight to allow the cells to adhere. The following day an eleven point, serial semilog dilution of each compound was added to the cells in 16 μL at a final concentration ranging from 0.3-0.000003 μM. At 4 or 24 hr post compound addition, the cells were fixed (10% formalin in PBS) for 20 minutes. Cells were permeablized in PBS 0.1% Triton and blocked with LICOR blocking buffer (50 μl/well, 90′). The wells were then incubated overnight at 4° C. with SP1 rabbit monoclonal Ab (Thermo Scientific) diluted 1:1000 in LICOR blocking buffer/0.1% Tween-20. Wells which were treated with blocking buffer with Tween but no antibody were used as a background control. Wells were washed with 0.1% Tween-20/PBS and then incubated in goat anti-rabbit IRDye™ 800CW (LICOR Inc.; 1:1000) and DRAQ5 DNA dye (1:2000 for 2 mM stock) diluted in LICOR blocking buffer containing 0.1% Tween-20 and 0.01% SDS for 60 minutes. Cells were washed (50 μl/well, 5′ each) in 0.1% Tween-20/PBS. Plates were scanned on a LICOR Odyssey infrared imaging system. Integrated intensities in the 800 nm channel and 700 nm channel were measured to determine levels of ER and DNA respectively. Percent ER levels were determined as follows: (Integrated intensity 800 nm sample/integrated intensity 700 nm sample)/(Integrated intensity 800 nm untreated cells/integrated intensity 700 nm untreated cells)×100=% ER levels.

[2] = tested on: MCF-7 cells; test: Breast Cancer Cell Viability Assay (MCF7 Viability Assay); type: cell-based; conditions: for IC50: Homo sapiens, MCF7, 120 h, read-out: MCF7 Viability Assay IC50; for MCF7 Viability Assay Max Response: MCF-7 cells, 5 days' compound exposure, CellTiter-Glo

T1 sequence (P03372 whole entry): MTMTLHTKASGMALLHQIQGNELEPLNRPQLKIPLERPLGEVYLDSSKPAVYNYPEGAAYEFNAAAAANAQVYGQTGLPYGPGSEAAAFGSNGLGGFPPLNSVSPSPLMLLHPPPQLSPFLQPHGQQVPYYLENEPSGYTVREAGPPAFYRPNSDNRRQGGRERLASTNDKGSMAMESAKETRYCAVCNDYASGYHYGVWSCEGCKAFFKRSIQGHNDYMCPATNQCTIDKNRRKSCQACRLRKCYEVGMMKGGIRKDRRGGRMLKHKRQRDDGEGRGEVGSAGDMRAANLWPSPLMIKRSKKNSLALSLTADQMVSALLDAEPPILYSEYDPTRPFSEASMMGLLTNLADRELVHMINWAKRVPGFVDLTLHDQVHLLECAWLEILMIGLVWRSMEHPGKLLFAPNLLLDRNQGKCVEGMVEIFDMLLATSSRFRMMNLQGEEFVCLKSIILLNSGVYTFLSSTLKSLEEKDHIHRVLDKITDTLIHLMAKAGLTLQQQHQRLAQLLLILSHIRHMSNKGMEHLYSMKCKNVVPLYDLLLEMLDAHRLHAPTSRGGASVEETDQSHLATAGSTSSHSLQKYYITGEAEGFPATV

Structure (SMILES) | Emax [1] | IC50 [2] | MCF7 Viability Assay Max Response [2]
CC1=C(c2cc(O)cc(C#N)c2)C(c2ccc(OC[C@H](C)N3CC[C@@H](C)C3)cc2)Oc2ccc(O)cc21 (stereo partly drawn) [Example 7, 3-Hydroxy-5-(6-hydroxy-4-methyl-2-(4-((S)-2-((R)-3-methylpyrrolidin-1-yl)propoxy)phenyl)-2H-chromen-3-yl)benzonitrile] | 60 to 85% | < 1 nM | ++ (++ = a single % value ≧50%)
CC1=C(c2ccc(S(C)(=O)=O)cc2C)C(c2ccc(OC[C@H](C)N3CC[C@@H](C)C3)cc2)Oc2ccc(O)cc21 (stereo partly drawn) [Example 18, 4-Methyl-3-(2-methyl-4-(methylsulfonyl)phenyl)-2-(4-((S)-2-((R)-3-methylpyrrolidin-1-yl)propoxy)phenyl)-2H-chromen-6-ol] | 60 to 85% | > 1 nM | ++ (++ = a single % value ≧50%)
CC1=C(c2cccc(O)c2)C(c2ccc(OC[C@H](C)N3CC[C@@H](O)C3)cc2)Oc2ccc(O)cc21 (stereo partly drawn) [Example 26, (3R)-1-((2S)-1-(4-(6-Hydroxy-3-(3-hydroxyphenyl)-4-methyl-2H-chromen-2-yl)phenoxy)propan-2-yl)pyrrolidin-3-ol] | < 60% | < 1 nM | + (+ = a single % value <50%)
CC1=C(c2cccc(O)c2)C(c2ccc(OCCN3CCOC[C@H]3C)cc2)Oc2ccc(O)cc21 (stereo partly drawn) [Example 24, 3-(3-Hydroxyphenyl)-4-methyl-2-(4-(2-((R)-3-methylmorpholino)ethoxy)phenyl)-2H-chromen-6-ol] | < 60% | < 1 nM | + (+ = a single % value <50%)
CC1=C(c2cccc(O)c2C#N)C(c2ccc(OC[C@H](C)N3CC[C@@H](C)C3)cc2)Oc2ccc(O)cc21 (stereo partly drawn) [Example 9, 2-Hydroxy-6-(6-hydroxy-4-methyl-2-(4-((S)-2-((R)-3-methylpyrrolidin-1-yl)propoxy)phenyl)-2H-chromen-3-yl)benzonitrile] | 60 to 85% | > 1 nM | ++ (++ = a single % value ≧50%)
CC1=C(c2ccc(Br)cc2C)C(c2ccc(OC[C@H](C)N3CC[C@@H](C)C3)cc2)Oc2ccc(O)cc21 (stereo partly drawn) [Example 4, 3-(4-Bromo-2-methylphenyl)-4-methyl-2-(4-((S)-2-((R)-3-methylpyrrolidin-1-yl)propoxy)phenyl)-2H-chromen-6-ol] | 60 to 85% | > 1 nM | ++ (++ = a single % value ≧50%)
CC1=C(c2cc(O)cc(Br)c2)C(c2ccc(OC[C@H](C)N3CC[C@@H](C)C3)cc2)Oc2ccc(O)cc21 (stereo partly drawn) [Example 1, 3-(3-Bromo-5-hydroxyphenyl)-4-methyl-2-(4-((S)-2-((R)-3-methylpyrrolidin-1-yl)propoxy)phenyl)-2H-chromen-6-ol] | > 85% | < 1 nM | ++ (++ = a single % value ≧50%)
CC1=C(c2cccc(O)c2)C(c2ccc(OC[C@H](C)N3CCOCC3)cc2)Oc2ccc(O)cc21 (stereo partly drawn) [Example 29, 3-(3-Hydroxyphenyl)-4-methyl-2-(4-((S)-2-morpholinopropoxy)phenyl)-2H-chromen-6-ol] | 60 to 85% | < 1 nM | + (+ = a single % value <50%)
CC1=C(c2ccccc2C#N)C(c2ccc(OC[C@H](C)N3CC[C@@H](C)C3)cc2)Oc2ccc(O)cc21 (stereo partly drawn) [Example 14, 2-(6-Hydroxy-4-methyl-2-(4-((S)-2-((R)-3-methylpyrrolidin-1-yl)propoxy)phenyl)-2H-chromen-3-yl)benzonitrile] | 60 to 85% | > 1 nM | ++ (++ = a single % value ≧50%)

Source: patent publication US9187460B2, “Estrogen receptor modulators and uses thereof” (SERAGON PHARMACEUTICALS, INC., priority 2011, dated 2015)
